The assay concerns C3H10T1/2 cells. Put plainly: Adipocyte differentiation: lipid accumulation in induced C3H10T1/2 pre-adipocytes (Bodipy stain, Cellomics ArrayScan). In kind it is cell-based. Conditions: for activity at 1 µM / activity at 5 µM / activity at 25 µM / activity at 0.5 µM / activity at 2 µM: Mus musculus, C3H 10T1/2, 168 h, read-out: Cellular lipids (in % of differentiated cells); for activity at 1 µM / activity at 5 µM / activity at 25 µM / activity at 0.5 µM / activity at 2 µM / Cellular lipids (in % of differentiated cells): 7 days; for Effect on amount of cytoplasmic lipids (in words): single substances, summary of Table 1. As to the method: In the present invention, the effect of agents was identified by using cellular assays that measure the effect on adipocyte differentiation. Adherent pre-adipocyte cells, C3H10T1/2, were used; they were cultured in complete DMEM/FCS, i.e. Dulbecco's modified essential medium (DMEM) supplemented with penicillin/streptomycin [50 U penicillin/ml, […] streptomycin/ml] and 10% fetal calf serum (FCS) and passaged every 3-5 days. For experiments, C3H10T1/2 cells were re-suspended in DMEM/FCS without phenol red and seeded at […] cells/per well in collagen I pre-coated 24-well plates. After 2-3 days cells reached confluence. Culture medium was changed and cell differentiation was induced by adding induction medium consisting of rosiglitazone and insulin (at 50 μmol/L and 200 nmol/L, respectively). In some cases the induction medium consisted of […] dexamethasone and 500 μmol/L 3-isobutyl-1-methylxanthine. Control cells were cultured in DMEM/FCS containing only insulin. Where appropriate, substances were added to the differentiation medium at various concentrations at the time of induction, except for carotenoids which were added at the beginning of culture in order to preload the cells. The induction medium was changed every 2-3-days. Seven days after induction, cells were fixed in 60% isopropanol (40% water). After two washes in phosphate buffered saline (PBS), cells were stained with the neutral lipid stain Bodipy® 493/505 (0.5 μg/ml) and the nuclear stain Hoechst 33342 dye (2 μg/ml) for 30 minutes in the dark. After washing with PBS, the stained cells were stored at 4° C. in PBS. The extent of differentiation was quantified in a Cellomics array™ Array Scan V^Ti (http://www.cellomics.com/) using the Spot Detector BioApplication that had been optimized for detecting lipid accumulation in differentiated adipocytes. Effects of treatments were quantified using the ‘SpotCount’ and ‘SpotCountPerObject’ parameter that adequately reflects the differentiation status of the adipocytes.
The tested compounds were purchased from Sigma (PUFAs, i.e. DHA docosahexaenoic acid; EPA eicosapentaenoic acid) or Cayman Chemicals hydroxytyrosol), from DSM (hydroxytyrosol, resveratrol, genistein) or from Ehrenstorfer GmbH, Augsburg Germany (carotenoids like β-carotene, β-cryptoxanthin, lutein, lycopene, zeaxanithin); rose hip concentrate/powder was purchased from HybenVital (Denmark). The compounds to be tested were dissolved in dimethylsulfoxide (DMSO) or—in the case of carotenoids—in tetrahydrofuran (THF). Cells were preloaded with carotenoids, i.e. these were added to the culture medium when cells were seeded into test plates. Carotenoids were freshly prepared for every experimental series. Vehicle solution was added to reach a final concentration of 0.5% (v/v).
We further tested the effect of substances that were added to cultures concomitantly. The obtained values were then compared to the sum of the effect of individual substances: positive values indicate that two substances interact synergistically and thus surpass the individual effects.

Where [1] appears, read: 1 μM compound + inducers of differentiation.
Where [2] appears, read: 5 μM compound + inducers of differentiation.
Setting [3] is: 25 μM compound + inducers of differentiation.
Where [4] appears, read: 0.5 μM carotenoid (cells preloaded) + inducers.
[5] abbreviates: 1.0 μM carotenoid (cells preloaded) + inducers.
[6] abbreviates: 2.0 μM carotenoid (cells preloaded) + inducers.

Like-named read-outs stand apart in the source and are kept apart here.

Turning to `CC/C=C\C/C=C\C/C=C\C/C=C\C/C=C\C/C=C\CCC(=O)O` [DHA, docosahexaenoic acid], under setting [1], the activity at 1 µM amounted to 95.9%. For the same molecule, the activity at 5 µM under setting [2] was found to be 91.5%. The activity at 25 µM under setting [3] worked out at 66.2%.

Consider `CC/C=C\C/C=C\C/C=C\C/C=C\C/C=C\CCCC(=O)O` [EPA, eicosapentaenoic acid], for which the activity at 1 µM under setting [1] was found to be 86.6%. In addition, under setting [2], the activity at 5 µM is 77%. Besides, the activity at 25 µM under setting [3] stood at 74.1%.

For the molecule `O=c1c(-c2ccc(O)cc2)coc2cc(O)cc(O)c12` [Genistein, genistein], the “Effect on amount of cytoplasmic lipids (in words)” value (“Effect on amount” for short) is recorded as “only minor effects”. The activity at 1 µM under setting [1] came to 112%. In addition, the activity at 5 µM under setting [2] is 99.7%. Moreover, under setting [3], the activity at 25 µM was found to be 95.9%.

Turning to `OCCc1ccc(O)c(O)c1` [Hydroxytyrosol], the activity at 1 µM under setting [1] was 103%. In addition, the activity at 5 µM under setting [2] was 103%. The activity at 25 µM under setting [3] was 68.3%.

Consider `Oc1ccc(C=Cc2cc(O)cc(O)c2)cc1` [Resveratrol, resveratrol], for which the “Effect on amount” value was “only minor effects”. The activity at 1 µM under setting [1] is 106%. Besides, the activity at 5 µM under setting [2] came out at 102%. In addition, the activity at 25 µM under setting [3] turned out to be 103%.

On to `CC1=C(/C=C/C(C)=C/C=C/C(C)=C/C=C/C=C(C)/C=C/C=C(C)/C=C/C2=C(C)CCCC2(C)C)C(C)(C)CCC1` [beta-carotene, β-carotene], for which the activity at 0.5 µM under setting [4] worked out at 93%. Moreover, the activity at 1 µM under setting [5] stood at 66.7%. The activity at 2 µM under setting [6] was determined as 69.4%.

For `CC1=C[C@H](O)CC(C)(C)[C@H]1/C=C/C(C)=C/C=C/C(C)=C/C=C/C=C(C)/C=C/C=C(C)/C=C/C1=C(C)C[C@@H](O)CC1(C)C` [lutein], under setting [4], the activity at 0.5 µM was found to be 94.3%. For the same molecule, the activity at 1 µM under setting [5] was determined as 85.6%. Moreover, the activity at 2 µM under setting [6] stood at 72.1%.

With `CC(C)=CCC/C(C)=C/C=C/C(C)=C/C=C/C(C)=C/C=C/C=C(C)/C=C/C=C(C)/C=C/C=C(\C)CCC=C(C)C` [lycopene], the activity at 0.5 µM under setting [4] was 44.5%. Further, the activity at 1 µM under setting [5] was 45.1%. The activity at 2 µM under setting [6] amounted to 24.6%.

As for `CC1=C(/C=C/C(C)=C/C=C/C(C)=C/C=C/C=C(C)/C=C/C=C(C)/C=C/C2=C(C)C[C@@H](O)CC2(C)C)C(C)(C)C[C@H](O)C1` [zeaxanthin], the “Cellular lipids (in % of differentiated cells)” value is, setting by setting: under setting [4], 56.8%; under setting [5], 39.5%; under setting [6], 43.7%.

For `CC1=C(/C=C/C(C)=C/C=C/C(C)=C/C=C/C=C(C)/C=C/C=C(C)/C=C/C2=C(C)C[C@@H](O)CC2(C)C)C(C)(C)CCC1` [β-cryptoxanthin], the “Cellular lipids (in % of differentiated cells)” value reads like this: under setting [4], 47.5%; under setting [5], 34.9%; under setting [6], 16.2%.

For the molecule (−)-epigallocatechin gallate [EGCG], the “Effect on amount” value is given as “only minor effects”. For the same molecule, the “Cellular lipids (in % of differentiated cells)” value under setting [1] is given as 113.1%. Moreover, the “Cellular lipids (in % of differentiated cells)” value under setting [2] is 98.9%. The “Cellular lipids (in % of differentiated cells)” value under setting [3] amounted to 93.1%.

Source of the values: patent publication US20100015262A1, “NOVEL USE OF COMPOUNDS AND COMBINATIONS OF COMPOUNDS FOR IMPROVING THE PHYSICAL APPEARANCE” (priority 2006, published 2010).
